Values quoted from earlier work, collected in publication PMC6234229, “The role of loops B and C in determining the potentiation of GABAA receptors by midazolam” (Pharmacology Research & Perspectives, 2018).

Columns and labels:
α3β1γ2 receptors = tested on: α3β1γ2 receptors; set-up: method as in PMID 1646944, PMID 8381510; settings: cited from earlier work
[1] = tested on: α6‐containing GABAA receptors; settings: cited from earlier work

SMILES	potentiation of α3β1γ2 vs α1β1γ2 receptors (α3β1γ2 receptors)	potentiation of α6‐ vs α3‐containing GABAA receptors [1]
CN1C(=O)CN=C(c2ccccc2F)c2cc([N+](=O)[O-])ccc21 [flunitrazepam]	potentiated α3β1γ2 receptors more than α1β1γ2 receptors	
CC#CCOC(=O)c1c(C)nc2sc3c(c2c1N)CCC(O)C3 (stereo not drawn) [SB‐205384]		potentiate α6‐containing GABAA receptors even more strongly than α3
CN1C(=O)CN=C(c2ccccc2)c2cc(Cl)ccc21 [diazepam]	potentiated α3β1γ2 receptors more than α1β1γ2 receptors	
